Measurements published in patent US5872124A, “Treatment of diseases of the central nervous system using uric acid as a scavenger of peroxynitrite” (Thomas Jefferson University, priority 1996, dated 1999).

Assays:
nitric oxide (NO) [1] = assay: NO level in spinal cord of Lewis rats with adoptive transfer EAE (spin trapping, EPR); assay type: in vivo
Method: (§1) In FIG. 1, EAE was elicited in 11 week old female Lewis rats by the adoptive transfer of 20×10^6 cells of the MBP-specific line 5HGBP.G5 activated by stimulation with MBP and syngeneic APC 48 hours previously and NO levels measured 5 days after transfer. In SWXJ-14 mice, EAE was triggered by two subcutaneous immunizations (d.0 and 7) with 100 μg PLP in CFA over two injection sites, and NO levels measured 18 days later. Results expressed represent the mean values obtained from a minimum of 4 animals. Peak severity of the symptoms of EAE ranged from 2-3 for the rats and 4-5 for the mice. NO was semi-quantitated using spin trapping with DETC and EPR-spectroscopy as described previously.
(§2) Rats were injected i.v. with 20×10^6 MBP-specific CD4 T cells activated in vitro. Two days later the animals were treated with a single dose of either PTIO (20 mg) or a mixture of PTIO (20 mg), indomethacin (1 mg), and allopurinol (13 mg). Treatment was continued on a daily basis until day 4 and animals were sacrificed for NO measurement the following day.

[2] = Side-effects of PTIO in EAE; assay type: in vivo
Method: The biological half-life of carboxy-PTIO are estimated to be less than five minutes in the blood when injected i.v. or i.p. into either rats or mice. Approximately 75% of the PTIO administered to mice can be accounted for in excretions within 4 hours. Nevertheless, the clinical symptoms of animals subjected to the stimuli that induce EAE and treated with PTIO are clearly alleviated for at least 24 hours between doses. […] It is possible that the removal of a significant quantity of NO may reduce the amount of tissue damage to a level that the animal can cope with. However, we believe that it is possible that the transient reduction of NO accumulation in an inflammatory response may have more wide ranging effects for instance through the disturbance of regulatory circuits effecting the production of NO or one of the other related substances involved in immunopathology. […] Through its effects on the circulation, NO may play a role in facilitating access of MBP specific T cells to the brain which could be inhibited by PTIO. It is also conceivable that a PTIO derivative formed by its interaction with NO also has some protective effect. […]

Water solubility = assay type: physicochemical
nitric oxide (NO) [3] = assay: NO levels in spinal cord and brain of SJL mice with EAE; assay type: in vivo
Method: SJL mice are immunized subcutaneously with pMBP in adjuvant to induce EAE, from which they often recover. Commencing ten days post-immunization, groups of mice (n=6) were treated once daily with 2 mg of either PTIO or carboxy-PTIO intraperitoneally and observed for clinical signs of EAE which were graded as detailed in Table 1. […] At 18 days […], NO determinations were performed in several mice from each group.

[4] = system: experimental allergic encephalomyelitis (EAE), MBP-specific T cell transfer; assay: Clinical severity of adoptive transfer EAE in Lewis rats; assay type: in vivo
Excerpt: Induction of EAE in rats by adoptive transfer of MBP-specific T cells or in SJL or SWXJ-14 mice by immunization with MBP or PLP 139-151, a peptide derived from […] [8], results in variable disease. We have scored the clinical systems of EAE as tabulated below.
______________________________________
Severity scores and symptoms of Experimental Allergic
1 piloerection, tail weakness
3 hind limb weakness/paralysis
4 hind and forelimb paralysis
as §1, §2

With CC1(C)N([O])C(c2ccccc2)=[N+]([O-])C1(C)C [PTIO, 2-phenyl-4,4,5,5-tetramethylimidazoline-1-oxyl-3-oxide] the NO-spinal cord (nitric oxide (NO) [1]; Rat-adoptive transfer EAE, Table 2) was “undetectable”, the “Levels of NO in spinal cord” value (nitric oxide (NO) [1]; rats, adoptive transfer EAE, i.p. administration) was “reduce levels of NO detected in spinal cord” and the Side-effects [2] was “without notable side-effects”. The Water solubility (Water solubility) was “not water soluble”, the “NO levels in spinal cord (FIG. 8)” value (nitric oxide (NO) [3]; 2 mg once daily i.p., day 18) was “lower in the spinal cords” and the “Levels of NO in spinal cord” value (nitric oxide (NO) [3]; SJL mice, i.p. administration) was “reduce levels of NO detected in spinal cord”. The NO-spinal cord (nitric oxide (NO) [3]; SJL mouse - immunization EAE, Table 2) was 1.6 mM, the “Symptoms of disease (FIG. 6)” value ([4]; PTIO 20 mg daily from day 2 to day 4 after T cell transfer, alone or in mix) was “little or no symptoms of disease” and the Clinical severity ([4]; Rat-adoptive transfer EAE, severity score 1-5, Table 2) was 0.8. The “Duration of alleviation of clinical symptoms between doses” value ([4]; animals subjected to stimuli that induce EAE (species not specified)) was “at least 24 hours” and the “Clinical symptoms of EAE” value ([4]; rats, MBP-specific T cell transfer, i.p. administration) was “forestall the appearance of clinical symptoms of EAE”.
